According to paper PMC4620497 (Scientific Reports, 2015):

How the values were obtained:
[1] = test system: FLT3; conditions: previously identified FLT3 inhibitor; read-out: IC50 against FLT3; cited from earlier work
[2] = target: T1, EGFR(G719S) (Homo sapiens, UniProt P00533, G719S); experiment: KINOMEscan panel screen; format: binding; conditions: read-out: Percent Control(%)
T1 construct: purchased DiscoveRx KINOMEscan (Ambit Biosciences)

[3] = target: T2, TYK2(JH1domain-catalytic) (Homo sapiens, UniProt P29597); experiment: KINOMEscan panel screen; format: binding; conditions: read-out: Percent Control(%)
T2 construct: TYK2(JH1domain-catalytic); purchased DiscoveRx KINOMEscan (Ambit Biosciences)

[4] = target: T3, VRK2 (Homo sapiens, UniProt Q86Y07); experiment: KINOMEscan panel screen; format: binding; conditions: read-out: Percent Control(%)
T3 construct: purchased DiscoveRx KINOMEscan (Ambit Biosciences)

[5] = target: T4, HCK (Homo sapiens, UniProt P08631); experiment: KINOMEscan panel screen; format: binding; conditions: read-out: Percent Control(%)
T4 construct: purchased DiscoveRx KINOMEscan (Ambit Biosciences)

[6] = target: T5, ROS1 (Homo sapiens, UniProt P08922); experiment: KINOMEscan panel screen; format: binding; conditions: read-out: Percent Control(%)
T5 construct: purchased DiscoveRx KINOMEscan (Ambit Biosciences)

[7] = test system: SU-DHL-6; experiment: MTT cell viability assay; conditions: Homo sapiens, SU-DHL-6, 72 h
[8] = target: T6, ALK(L1196M) (Homo sapiens, UniProt Q9UM73, L1196M); experiment: KINOMEscan panel screen; format: binding; conditions: read-out: Percent Control(%)
T6 construct: purchased DiscoveRx KINOMEscan (Ambit Biosciences)

[9] = target: T7, GRK7 (Homo sapiens, UniProt Q8WTQ7); experiment: KINOMEscan panel screen; format: binding; conditions: read-out: Percent Control(%)
T7 construct: purchased DiscoveRx KINOMEscan (Ambit Biosciences)

[10] = test system: β-catenin target genes in primary AML cells; experiment: Real-time qPCR of β-catenin target genes in primary AML cells; format: cell-based, human
From the text: To confirm the Wnt/β-catenin inhibition effect of SKLB-677, we examined the protein levels of total β-catenin and non-phospho-β-catenin (active β-catenin); the non-phospho β-catenin other than the phosphorylated β-catenin enters the cell nucleus and plays the gene regulation function. […] We further examined the expressions of β-catenin target genes MYC, CCND1, and NKD1 by real-time qPCR. […] Finally, the real-time qPCR assays were used again to inspect the influence of SKLB-677 on Wnt/β-catenin signaling in the primary AML cells.
Total RNA of cell samples and tumor samples was extracted using RNAsimple total RNA kit (TIANGEN) according to the manufacturer’s instructions. cDNA was generated using the iScript^TMcDNA Synthesis Kit (Bio-Rad), and the RT-PCR reactions were performed using SsoAdvanced SYBR Green Supermix (Bio-Rad). The reaction consisted of 40 cycles of denaturation at 95 °C for 5 s and annealing/extension for 30s at 60 °C. The primer sequences are listed in Supplementary Table S7.

[11] = target: T8, TXK (Homo sapiens, UniProt P42681); experiment: KINOMEscan panel screen; format: binding; conditions: read-out: Percent Control(%)
T8 construct: purchased DiscoveRx KINOMEscan (Ambit Biosciences)

[12] = target: T9, AURKB (Homo sapiens, UniProt Q96GD4); experiment: KINOMEscan panel screen; format: binding; conditions: read-out: Percent Control(%)
T9 construct: purchased DiscoveRx KINOMEscan (Ambit Biosciences)

[13] = target: T10, ERK5 (Homo sapiens, UniProt Q13164); experiment: KINOMEscan panel screen; format: binding; conditions: read-out: Percent Control(%)
T10 construct: purchased DiscoveRx KINOMEscan (Ambit Biosciences)

[14] = target: T11, LYN (Homo sapiens, UniProt P07948); experiment: KINOMEscan panel screen; format: binding; conditions: read-out: Percent Control(%)
T11 construct: purchased DiscoveRx KINOMEscan (Ambit Biosciences)

[15] = test system: Ramos; experiment: MTT cell viability assay; conditions: Homo sapiens, 72 h
[16] = test system: H1975; experiment: MTT cell viability assay; conditions: Homo sapiens, NCI-H1975, 72 h
[17] = target: T12, ACVRL1 (Homo sapiens, UniProt P37023); experiment: KINOMEscan panel screen; format: binding; conditions: read-out: Percent Control(%)
T12 construct: purchased DiscoveRx KINOMEscan (Ambit Biosciences)

[18] = target: T13, MAP3K1 (Homo sapiens, UniProt Q13233); experiment: KINOMEscan panel screen; format: binding; conditions: read-out: Percent Control(%)
T13 construct: purchased DiscoveRx KINOMEscan (Ambit Biosciences)

[19] = test system: KG-1; experiment: MTT cell viability assay; conditions: Homo sapiens, KG-1, 72 h
[20] = target: ERK; experiment: KINOMEscan kinase binding assay (Kd); conditions: Table S1
From the text: In vitro KINOMEscan kinase binding assays (Ambit Biosciences) were employed to determine the binding affinity (Kd) of compounds[41][42].
compound 1. The y have very similar spectrum of activity in enz ymatic and cellular
levels. Both of them have the ability to inhibit Wnt/β -catenin si gnalin g. However, in […]

[21] = target: T14, MEK3 (Homo sapiens, UniProt P46734); experiment: KINOMEscan panel screen; format: binding; conditions: read-out: Percent Control(%)
T14 construct: purchased DiscoveRx KINOMEscan (Ambit Biosciences)

[22] = target: T15, CSNK1G3 (Homo sapiens, UniProt Q9Y6M4); experiment: KINOMEscan panel screen; format: binding; conditions: read-out: Percent Control(%)
T15 construct: purchased DiscoveRx KINOMEscan (Ambit Biosciences)

[23] = target: T16, PCTK3 (Homo sapiens, UniProt Q07002); experiment: KINOMEscan panel screen; format: binding; conditions: read-out: Percent Control(%)
T16 construct: purchased DiscoveRx KINOMEscan (Ambit Biosciences)

[24] = target: T17, HIPK4 (Homo sapiens, UniProt Q8NE63); experiment: KINOMEscan panel screen; format: binding; conditions: read-out: Percent Control(%)
T17 construct: purchased DiscoveRx KINOMEscan (Ambit Biosciences)

[25] = target: T18, CAMK2D (Homo sapiens, UniProt Q13557); experiment: KINOMEscan panel screen; format: binding; conditions: read-out: Percent Control(%)
T18 construct: purchased DiscoveRx KINOMEscan (Ambit Biosciences)

[26] = target: T19, CDKL5 (Homo sapiens, UniProt O76039); experiment: KINOMEscan panel screen; format: binding; conditions: read-out: Percent Control(%)
T19 construct: purchased DiscoveRx KINOMEscan (Ambit Biosciences)

[27] = target: T20, PYK2 (Homo sapiens, UniProt Q14289); experiment: KINOMEscan panel screen; format: binding; conditions: read-out: Percent Control(%)
T20 construct: purchased DiscoveRx KINOMEscan (Ambit Biosciences)

[28] = target: T21, PIK3CA(M1043I) (Homo sapiens, UniProt P42336, M1043I); experiment: KINOMEscan panel screen; format: binding; conditions: read-out: Percent Control(%)
T21 construct: purchased DiscoveRx KINOMEscan (Ambit Biosciences)

[29] = target: T22, RSK3(Kin.Dom.1-N-terminal) (Homo sapiens, UniProt Q15349); experiment: KINOMEscan panel screen; format: binding; conditions: read-out: Percent Control(%)
T22 construct: RSK3(Kin.Dom.1-N-terminal); purchased DiscoveRx KINOMEscan (Ambit Biosciences)

[30] = target: T23, ANKK1 (Homo sapiens, UniProt Q8NFD2); experiment: KINOMEscan panel screen; format: binding; conditions: read-out: Percent Control(%)
T23 construct: purchased DiscoveRx KINOMEscan (Ambit Biosciences)

[31] = target: T24, PIP5K2B (Homo sapiens, UniProt P78356); experiment: KINOMEscan panel screen; format: binding; conditions: read-out: Percent Control(%)
T24 construct: purchased DiscoveRx KINOMEscan (Ambit Biosciences)

[32] = target: T25, AXL (Homo sapiens, UniProt P30530); experiment: KINOMEscan panel screen; format: binding; conditions: read-out: Percent Control(%)
T25 construct: purchased DiscoveRx KINOMEscan (Ambit Biosciences)

[33] = target: T26, ACVR2B (Homo sapiens, UniProt Q13705); experiment: KINOMEscan panel screen; format: binding; conditions: read-out: Percent Control(%)
T26 construct: purchased DiscoveRx KINOMEscan (Ambit Biosciences)

[34] = target: T27, CHEK2 (Homo sapiens, UniProt O96017); experiment: KINOMEscan panel screen; format: binding; conditions: read-out: Percent Control(%)
T27 construct: purchased DiscoveRx KINOMEscan (Ambit Biosciences)
T27 sequence (O96017 whole entry): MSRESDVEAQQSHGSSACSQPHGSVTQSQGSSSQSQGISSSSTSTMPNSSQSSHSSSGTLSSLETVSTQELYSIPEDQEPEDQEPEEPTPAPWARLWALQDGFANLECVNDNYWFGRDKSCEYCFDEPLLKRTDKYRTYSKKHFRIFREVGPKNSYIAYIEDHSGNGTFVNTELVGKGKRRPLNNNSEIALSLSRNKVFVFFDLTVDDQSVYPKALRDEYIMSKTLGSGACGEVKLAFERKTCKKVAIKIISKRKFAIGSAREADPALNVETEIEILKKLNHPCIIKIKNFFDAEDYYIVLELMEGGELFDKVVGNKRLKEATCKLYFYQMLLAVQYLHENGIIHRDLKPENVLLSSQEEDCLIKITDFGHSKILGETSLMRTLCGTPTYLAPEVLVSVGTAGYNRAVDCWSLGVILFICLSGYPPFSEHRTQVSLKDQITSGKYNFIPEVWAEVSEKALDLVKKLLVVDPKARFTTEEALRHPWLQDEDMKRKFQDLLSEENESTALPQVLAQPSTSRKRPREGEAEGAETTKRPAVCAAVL

T2 sequence (P29597 871-1187 limits assumed): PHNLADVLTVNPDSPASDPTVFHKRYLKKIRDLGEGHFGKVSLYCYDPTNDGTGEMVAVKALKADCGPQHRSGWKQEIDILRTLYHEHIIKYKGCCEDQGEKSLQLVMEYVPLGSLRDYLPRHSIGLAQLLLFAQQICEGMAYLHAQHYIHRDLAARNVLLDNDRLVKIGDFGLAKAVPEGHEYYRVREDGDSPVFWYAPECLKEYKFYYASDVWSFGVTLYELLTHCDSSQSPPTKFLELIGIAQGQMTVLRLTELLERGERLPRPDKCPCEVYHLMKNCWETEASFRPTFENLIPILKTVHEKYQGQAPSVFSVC
T18 sequence (Q13557 whole entry): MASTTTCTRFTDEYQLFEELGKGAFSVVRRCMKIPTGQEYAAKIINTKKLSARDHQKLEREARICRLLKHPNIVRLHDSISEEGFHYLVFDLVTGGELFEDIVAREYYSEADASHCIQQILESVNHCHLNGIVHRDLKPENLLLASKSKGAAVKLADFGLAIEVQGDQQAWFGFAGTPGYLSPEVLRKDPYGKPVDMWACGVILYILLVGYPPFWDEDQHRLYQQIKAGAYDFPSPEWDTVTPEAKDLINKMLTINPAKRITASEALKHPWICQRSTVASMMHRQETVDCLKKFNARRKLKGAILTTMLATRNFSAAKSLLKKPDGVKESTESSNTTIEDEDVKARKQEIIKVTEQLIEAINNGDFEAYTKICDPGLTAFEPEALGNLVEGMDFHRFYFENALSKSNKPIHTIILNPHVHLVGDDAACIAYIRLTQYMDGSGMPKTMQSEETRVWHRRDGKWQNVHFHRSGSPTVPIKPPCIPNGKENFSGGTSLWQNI
T24 sequence (P78356 whole entry): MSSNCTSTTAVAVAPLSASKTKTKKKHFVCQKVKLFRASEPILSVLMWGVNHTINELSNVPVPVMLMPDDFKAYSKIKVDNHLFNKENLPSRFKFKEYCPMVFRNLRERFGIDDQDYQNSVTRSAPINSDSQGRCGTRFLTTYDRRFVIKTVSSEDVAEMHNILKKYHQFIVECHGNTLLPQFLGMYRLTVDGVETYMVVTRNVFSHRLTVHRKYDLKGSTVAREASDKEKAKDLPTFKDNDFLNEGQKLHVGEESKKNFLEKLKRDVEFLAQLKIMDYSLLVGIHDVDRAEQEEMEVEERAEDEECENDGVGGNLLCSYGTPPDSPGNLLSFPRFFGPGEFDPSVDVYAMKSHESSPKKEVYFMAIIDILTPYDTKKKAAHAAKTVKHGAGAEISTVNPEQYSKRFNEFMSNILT
T21 sequence (P42336 whole entry M1043I): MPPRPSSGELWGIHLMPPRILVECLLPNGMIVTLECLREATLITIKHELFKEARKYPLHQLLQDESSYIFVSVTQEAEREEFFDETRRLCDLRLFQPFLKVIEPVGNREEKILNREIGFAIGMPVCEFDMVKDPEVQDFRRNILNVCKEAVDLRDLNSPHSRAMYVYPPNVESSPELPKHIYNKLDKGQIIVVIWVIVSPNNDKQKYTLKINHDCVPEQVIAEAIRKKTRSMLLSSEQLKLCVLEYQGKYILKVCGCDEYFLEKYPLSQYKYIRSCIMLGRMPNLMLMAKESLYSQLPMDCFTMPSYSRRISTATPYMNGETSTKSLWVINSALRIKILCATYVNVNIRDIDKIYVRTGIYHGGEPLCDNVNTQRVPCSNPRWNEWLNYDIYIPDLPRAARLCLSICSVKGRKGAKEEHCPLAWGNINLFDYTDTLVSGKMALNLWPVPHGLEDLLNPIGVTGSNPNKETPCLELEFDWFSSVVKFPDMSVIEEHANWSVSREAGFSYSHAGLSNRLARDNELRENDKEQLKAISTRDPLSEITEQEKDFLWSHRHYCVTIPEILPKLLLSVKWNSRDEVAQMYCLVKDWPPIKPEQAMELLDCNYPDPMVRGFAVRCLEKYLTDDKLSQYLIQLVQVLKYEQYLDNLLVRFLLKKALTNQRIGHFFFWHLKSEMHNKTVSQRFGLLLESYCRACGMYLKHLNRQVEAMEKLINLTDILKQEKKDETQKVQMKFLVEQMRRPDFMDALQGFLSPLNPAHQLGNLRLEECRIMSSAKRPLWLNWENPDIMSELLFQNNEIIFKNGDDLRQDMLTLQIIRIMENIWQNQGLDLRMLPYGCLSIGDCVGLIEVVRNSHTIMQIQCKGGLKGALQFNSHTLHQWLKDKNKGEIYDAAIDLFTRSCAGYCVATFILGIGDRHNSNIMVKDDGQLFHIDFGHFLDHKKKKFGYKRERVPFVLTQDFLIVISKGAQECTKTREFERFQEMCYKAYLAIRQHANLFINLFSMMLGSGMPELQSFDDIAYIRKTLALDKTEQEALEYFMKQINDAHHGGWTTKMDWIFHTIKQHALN
T26 sequence (Q13705 19-512): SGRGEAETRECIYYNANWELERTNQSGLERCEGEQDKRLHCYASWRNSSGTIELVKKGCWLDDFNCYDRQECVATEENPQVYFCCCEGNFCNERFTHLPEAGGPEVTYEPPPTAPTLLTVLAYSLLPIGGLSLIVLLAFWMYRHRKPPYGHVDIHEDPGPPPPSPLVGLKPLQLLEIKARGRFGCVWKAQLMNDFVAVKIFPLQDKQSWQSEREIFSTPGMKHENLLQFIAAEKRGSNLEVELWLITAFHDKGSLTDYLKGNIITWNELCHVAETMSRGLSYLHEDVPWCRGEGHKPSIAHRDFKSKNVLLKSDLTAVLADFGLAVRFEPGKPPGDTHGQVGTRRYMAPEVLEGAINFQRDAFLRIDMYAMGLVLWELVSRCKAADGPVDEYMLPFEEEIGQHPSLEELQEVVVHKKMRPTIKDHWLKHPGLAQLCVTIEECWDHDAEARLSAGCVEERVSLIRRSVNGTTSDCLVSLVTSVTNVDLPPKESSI
T4 sequence (P08631 whole entry): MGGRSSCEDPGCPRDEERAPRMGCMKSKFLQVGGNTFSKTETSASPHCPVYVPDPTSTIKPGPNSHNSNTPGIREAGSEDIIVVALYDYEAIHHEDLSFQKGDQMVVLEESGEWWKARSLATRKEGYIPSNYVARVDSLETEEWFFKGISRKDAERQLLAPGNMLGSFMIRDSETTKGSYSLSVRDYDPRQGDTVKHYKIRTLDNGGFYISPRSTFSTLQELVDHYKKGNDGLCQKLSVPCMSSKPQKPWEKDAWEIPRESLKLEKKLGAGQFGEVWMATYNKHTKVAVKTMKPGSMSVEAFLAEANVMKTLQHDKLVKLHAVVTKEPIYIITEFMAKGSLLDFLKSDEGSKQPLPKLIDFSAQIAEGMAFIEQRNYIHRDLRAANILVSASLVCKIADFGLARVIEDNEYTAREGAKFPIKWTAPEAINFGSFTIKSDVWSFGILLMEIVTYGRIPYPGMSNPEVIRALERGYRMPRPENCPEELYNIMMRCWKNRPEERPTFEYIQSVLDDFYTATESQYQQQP
T12 sequence (P37023 22-503): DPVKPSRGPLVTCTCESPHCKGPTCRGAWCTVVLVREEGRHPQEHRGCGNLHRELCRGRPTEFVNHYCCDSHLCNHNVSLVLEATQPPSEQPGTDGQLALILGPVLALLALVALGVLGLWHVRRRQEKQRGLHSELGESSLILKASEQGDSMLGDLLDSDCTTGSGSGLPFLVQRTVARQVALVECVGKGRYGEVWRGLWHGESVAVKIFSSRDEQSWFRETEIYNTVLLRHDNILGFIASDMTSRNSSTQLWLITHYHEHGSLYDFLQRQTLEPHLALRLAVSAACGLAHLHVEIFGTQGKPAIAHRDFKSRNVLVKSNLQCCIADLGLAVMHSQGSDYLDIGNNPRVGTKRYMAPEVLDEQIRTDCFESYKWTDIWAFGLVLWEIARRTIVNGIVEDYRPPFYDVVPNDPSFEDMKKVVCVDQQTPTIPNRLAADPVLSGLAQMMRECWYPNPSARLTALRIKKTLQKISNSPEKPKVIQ
T17 sequence (Q8NE63 whole entry): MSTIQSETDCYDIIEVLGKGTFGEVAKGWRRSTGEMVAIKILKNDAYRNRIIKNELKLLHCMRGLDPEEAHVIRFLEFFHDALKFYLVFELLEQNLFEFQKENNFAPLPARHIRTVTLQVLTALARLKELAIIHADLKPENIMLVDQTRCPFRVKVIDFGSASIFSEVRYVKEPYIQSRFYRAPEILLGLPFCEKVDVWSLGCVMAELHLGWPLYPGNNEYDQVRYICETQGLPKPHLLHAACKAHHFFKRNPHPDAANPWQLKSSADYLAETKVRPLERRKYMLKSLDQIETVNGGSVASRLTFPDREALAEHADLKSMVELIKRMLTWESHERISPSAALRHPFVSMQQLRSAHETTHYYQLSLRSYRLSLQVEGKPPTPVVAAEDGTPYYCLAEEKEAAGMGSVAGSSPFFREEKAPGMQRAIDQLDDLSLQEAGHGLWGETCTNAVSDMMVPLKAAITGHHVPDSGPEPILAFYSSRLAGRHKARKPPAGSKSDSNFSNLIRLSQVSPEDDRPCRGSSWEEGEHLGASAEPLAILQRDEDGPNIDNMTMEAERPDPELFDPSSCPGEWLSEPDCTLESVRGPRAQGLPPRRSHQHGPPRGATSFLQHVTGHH

Q: Which IC50 [1] does the source give for `O=C(Nc1ccc(Oc2ncnc3[nH]ncc23)cc1)Nc1ccc(Cl)c(C(F)(F)F)c1` [Compound 1, 1-(4-(1H-pyrazolo[3,4-d]pyrimidin-4-yloxy)phenyl)-3-(4-chloro-3-(trifluoromethyl)phenyl)urea] here?
A: 0.039 µM

Q: Which remaining binding at 10 µM [2] does the source give for `CC(C)(C)c1cc(NC(=O)Nc2ccc(Oc3ncnc4[nH]ncc34)c(F)c2)no1` [SKLB-677, 1-(4-(1H-pyrazolo[3,4-d]pyrimidin-4-yloxy)-3-fluorophenyl)-3-(5-tert-butylisoxazol-3-yl)urea] here?
A: 47%

Q: And the remaining binding at 10 µM [3]?
A: 44%

Q: What about the remaining binding at 10 µM [4] of the same molecule?
A: 100%

Q: What about the remaining binding at 10 µM [5] of the same molecule?
A: 0.5%

Q: What about the remaining binding at 10 µM [6] of the same molecule?
A: 0.1%

Q: What about the IC50 [7] of the same molecule?
A: 7.78 µM

Q: What about the remaining binding at 10 µM [8] of the same molecule?
A: 71%

Q: What about the remaining binding at 10 µM [9] of the same molecule?
A: 87%

Q: What about the “expression of β-catenin target genes” value [10] of the same molecule?
A: considerably decrease

Q: And the remaining binding at 10 µM [11]?
A: 88%

Q: And the remaining binding at 10 µM [12]?
A: 2.6%

Q: And the remaining binding at 10 µM [13]?
A: 70%

Q: And the remaining binding at 10 µM [14]?
A: 2%

Q: What about the IC50 [15] of the same molecule?
A: 8.4 µM

Q: What about the IC50 [16] of the same molecule?
A: > 10 µM

Q: What about the remaining binding at 10 µM [17] of the same molecule?
A: 91%

Q: And the remaining binding at 10 µM [18]?
A: 36%

Q: And the IC50 [19]?
A: 2 µM

Q: What about the Kd [20] of the same molecule?
A: > 10 µM

Q: What about the remaining binding at 10 µM [21] of the same molecule?
A: 63%

Q: What about the remaining binding at 10 µM [22] of the same molecule?
A: 70%

Q: What about the remaining binding at 10 µM [23] of the same molecule?
A: 0.05%

Q: And the remaining binding at 10 µM [24]?
A: 0.45%

Q: And the remaining binding at 10 µM [25]?
A: 100%

Q: What about the remaining binding at 10 µM [26] of the same molecule?
A: 5%

Q: What about the remaining binding at 10 µM [27] of the same molecule?
A: 64%

Q: What about the remaining binding at 10 µM [28] of the same molecule?
A: 100%

Q: What about the remaining binding at 10 µM [29] of the same molecule?
A: 41%

Q: And the remaining binding at 10 µM [30]?
A: 57%

Q: And the remaining binding at 10 µM [31]?
A: 98%

Q: What about the remaining binding at 10 µM [32] of the same molecule?
A: 3.8%

Q: And the remaining binding at 10 µM [33]?
A: 81%

Q: What about the remaining binding at 10 µM [34] of the same molecule?
A: 32%
